Experimental findings from a melting point compilation (Tetko et al.; mined from patent text by program, amines drawn as free bases though some values may be those of a salt) are described below.

Regarding `Nc1cc(C(=O)O)cc(SCc2ccsc2)c1Oc1ccccc1`, the melting point (usually the temperature, or range, at which the solid turns liquid) was 153 to 155 °C.

`COC(=O)c1ccc(Nc2nc(Nc3ccc(C(=O)OC)cc3)nc(Nc3ccc(C(=O)OCCOc4ccc(C(C)(C)CC(C)(C)C)cc4)cc3)n2)cc1` had a melting point of 157 to 160 °C. For `Cc1cc(Cl)cc2[nH]c(=O)c(=O)[nH]c12`, the melting point is more than 250 °C. `CNc1nc(Nc2ccc(Cl)c(Cl)c2)ncc1N1C(=O)CNC1=O` showed a melting point of 301 °C.

Regarding `Fc1ccc(C=Cc2ccc(C3COC(c4c(F)cccc4F)=N3)cc2)cc1` (stereo not given), the melting point lay in the range of 154 to 156 °C. The value for `CNc1ncc([N+](=O)[O-])c(Cl)n1` was 172 to 173 °C. The same measure for `CS(=O)(=O)OCC(Oc1ccc(F)c(C(N)=O)c1F)c1nc(-c2ccc(C(F)(F)F)cc2)c(Cl)o1` (stereo not given): 163 °C; for `O=C(O)CCCc1oc(Cl)nc1-c1ccc(Cl)cc1`: 150 to 151 °C; for `CC(C)(C)n1ncc(OCc2ccc(OCC(F)(F)C(F)F)nc2)c(Cl)c1=O`: 112 to 118 °C. `FC(F)(F)c1ccc(-c2cc(Oc3ccc4cccnc4c3)nnc2-c2ccccc2)cc1`: the melting point was 178 to 183 °C. The value for `CC(CCCC(C)(C)O)C1CCC2C3CC=C4CCCC(O)C4(C)C3CCC12C` (stereo not given) was 127 to 128 °C; that for `CC(C)CC1NCC(C)(C)NC1=O` (stereo not given) was 140 to 144 °C.

In turn, `C#CCOc1cc(-c2ncc(C(F)(F)F)cc2Cl)ccc1Cl` showed a melting point of 102 to 103 °C.

`CCCc1c[nH]nc1OCc1ccc2ccccc2n1`: the melting point lay in the range of 94 to 95 °C. The value for `O=C(Cn1nc(-c2ccccc2O)nc1-c1ccccc1O)NCCN1CCOCC1` was 180 to 182 °C. The same measure for `CCOC(=O)c1cc2c(Cl)c(F)ccc2[nH]1`: 180 to 182 °C; for `CCCCCS(=O)(=O)NC(=O)/C=C/c1ccc(OCCOC)cc1NC(=O)c1ccc(Cl)cc1Cl`: 177 °C. The value for `FC(F)(F)c1cc(Oc2cc(Oc3ccc(Cl)c(C(F)(F)F)c3)ncn2)ccc1Cl` was 111 °C. In turn, `Cc1nccn1C(=O)Nc1ccccc1` registered a melting point of 205 to 207 °C. In turn, `NC(=O)C(N)CC(=O)N[C@@H]1CN2C(=O)N(c3cc(Cl)nc(Cl)c3)C(=O)[C@@]2(Cc2ccc(OC(F)(F)F)cc2)C1` (stereo not given in full) showed a melting point of 108 °C.

Regarding `C#CCn1ncc(=O)[nH]c1=O`, the melting point amounted to 148 °C. The value for `COc1cc(Cl)c(C(=O)c2ccccc2F)c(OC)c1` was 88 to 92 °C; that for `O=C(NC1CCN(CCc2ccccc2)C1)C12CC3CC(CC(C3)C1)C2` (stereo not given) was 119 to 121 °C; that for `CC12CCC3C(CCC4CC(O)CCC43C)C1CCC2C#N` (stereo not given) was 156 to 158 °C. Molecule `CCCCCCCCCCCCCC(c1ccccc1)S(=O)(=O)NC(=O)Nc1c(C(C)C)cccc1C(C)C` (stereo not given) had a melting point of 97 to 102 °C. The same measure for `COc1ccc(COC(=O)n2c(SCc3ccc(C)cn3)nc3cscc32)cc1`: 120 to 121 °C.

As for `Cc1cccc(OC(=O)N2CCCC2=O)c1`, the melting point lay in the range of 58 to 59 °C. In the case of `CS(=O)(=O)c1ccc(-n2ncc(C#N)c2-c2ccc(-c3ccco3)cc2)cc1F`, the melting point lay in the range of 153 to 157 °C. The value for `CC(=O)N(CC1CC1)c1cccc(-c2ccc3nnc(C)n3n2)c1` was 118 to 121 °C; that for `CN1Cc2cncn2-c2ccccc2C1=O` was 212 to 213 °C; that for `NCC1Cc2cc(-c3ccc(Cl)cc3)cc(F)c2O1` (stereo not given) was more than 250 °C. The value for `CC(C)(C)NS(=O)(=O)c1ccc(C(=O)c2ccc(F)cc2)cc1` was 160 °C; that for `CCN(CC)CCOc1ccc([N+](=O)[O-])cc1NC(C)=O` was 117 °C. The same measure for `Cc1ccc(Nc2cc(-c3ccccc3)nc(-c3ccccc3)c2)cc1`: 125 °C. Regarding `N#Cc1ccc(C(=O)NCCC(=O)NC(CC(=O)OCc2ccccc2)C(=O)NC(Cc2ccccc2)C(=O)OCc2ccccc2)nc1` (stereo not given), the melting point lay within 157 to 158 °C. The value for `OCC(O)CN1CCN(c2nccs2)CC1` (stereo not given) was 138 to 139 °C; that for `COc1ccc(C#N)c(Cl)c1OC(C)=O` was 97 to 99 °C. The same measure for `O=C1NC(O)(C(Cl)(Cl)Cl)NC1=O`: 245 °C; for `CCCCc1nc2cccc(C(=O)O)c2n1Cc1ccc(-n2cccc2-c2nnn[nH]2)cc1`: 165 to 167 °C. As to `O=C(Nc1cccc2cc(CBr)cnc12)c1c(Cl)cccc1Cl`, the melting point was 223 to 224 °C. The value for `NS(=O)(=O)c1ccc(-n2nc(C(F)(F)F)cc2-c2ccc(Cl)cc2Cl)cc1` was 153 to 155 °C; that for `CC(=O)N1CCC(C)(C)c2cc(F)cc(CCN3CCN(c4noc5ccccc45)CC3)c21` was 112 °C; that for `Cc1nnc(-c2ccccc2F)n2nc(OCc3ncnn3C)c(-c3ccccc3)c12` was 159 to 162 °C. The value for `COc1cc(C)c(C=O)c(OC)c1OC` was 55 to 57 °C; that for `Cc1cc(CNC(=O)c2ccnc(N3CCN(Cc4ccc(F)cc4)C3=O)c2)nn1C` was 150 to 152 °C; that for `CCOC(=O)C1(c2ccc(Cl)cc2)OCC(c2ccc(F)cc2)(c2ccc(F)cc2)CO1` was 150 °C. The same measure for `COc1ccc(S(=O)(=O)C(C)(Cc2cccc(OCCN3CCCCC3)c2)C(N)=O)cc1` (stereo not given): 74 °C; for `CCN(C(=O)C(C)(C)C)c1cccc(-c2ccc3nnc(C)n3n2)c1`: 168 to 170 °C. In the case of `NC(=O)C1CCN(c2c(Cl)cncc2Cl)C1` (stereo not given), the melting point was in the range of 161 to 163 °C. In turn, `CC1CC(C)(C)c2cccc(NC(=O)c3cn(C)nc3C(F)F)c21` (stereo not given) returned a melting point of 131 to 134 °C. The value for `CCCCCC(CC(=O)Nc1cc(C(N)=O)ccc1CCCC)c1ccc(C(O)C(C)C)cc1OC` (stereo not given) was 162 to 163 °C; that for `Cc1nnc(COc2cccc(NC(=O)N(C)C)c2)o1` was 102 to 105 °C. The value for `CC1(Cn2c(=O)oc3ccccc32)Cn2cc([N+](=O)[O-])nc2O1` (stereo not given) was 223 to 224 °C; that for `COc1ccc(C(=O)OCc2ccc(C=O)cc2)cc1C(C)(C)C` was 75 to 76 °C; that for `COc1ccc(C(=O)c2ccc(Oc3ccccc3)cc2)cc1` was 118 to 119 °C. On to `CC1CC=C(Nc2ccccc2)c2ncc(C(=O)O)c(=O)n21` (stereo not given), for which the melting point lay within 160 to 162 °C. The value for `CN1C(=S)N(c2cc(C(F)(F)F)cc(C(F)(F)F)c2)C(O)C1O` (stereo not given) was 133 to 135 °C. With `CCCCCCCCCOc1ccc(Cl)c(C(N)=O)c1F`, the melting point lay within 75 to 77 °C. For `O=C(Nc1ccc(Cc2nnn[nH]2)cc1)C(F)(F)C(F)(F)C(F)(F)C(F)(F)C(F)(F)C(F)(F)C(F)(F)C(F)F`, the melting point lay in the range of 188 to 190 °C. The same measure for `Cc1ccccc1-c1cc(F)c2ncc(C(=O)NCc3ccc(Cl)cc3)c(O)c2c1`: 259 to 265 °C. The value for `CCn1c(=O)sc2cc(N3C[C@H](C(N)=O)OC3=O)ccc21` was 211 to 212 °C; that for `COc1cccc(N(C)C(=O)c2cnc(-c3cccc(C)c3)s2)c1` was 88 °C; that for `COc1cc(-c2nc(N)sc2SCC2CCCCC2)c(OC)cc1C` was 111 to 112 °C. The same measure for `C1=CCCCCN(CCc2nccc3c2[nH]c2ccccc23)CCCC1`: 77 to 82 °C; for `N#Cc1ccc(C(=O)NNc2ccc(NC(=S)Nc3ccccc3)cc2)cc1`: 184 to 185 °C. With `COC(=O)c1nc(OC)nc(OC)c1Cl`, the melting point lay in the range of 98 to 100 °C. The same measure for `COc1ccc(C(=O)Nc2c(C)c(C)c3c(c2C)C(c2ccc(C)cc2)C(C)(C)O3)cc1OC` (stereo not given): 169 to 171 °C. The value for `ON=C1C[C@H]2CC=CC[C@H]2C1` was 100 to 103 °C; that for `COc1ccc(C2=NN(C3CCN(C(=O)N4CCNC4=O)CC3)C(=O)[C@H]3CC=CC[C@@H]23)cc1Cl` (relative stereo) was 216 to 218 °C. The value for `COC(=O)c1ccc(Cn2nc(O)c3ccc(NC(=O)CC4CCCC4)cc32)c(OC)c1` was 242 to 245 °C. In the case of `CC(C)OC(=O)n1c(Cc2ccccc2)noc1=O`, the melting point came out at 80 °C.

With `Cn1c(C(F)(F)F)cc(=O)n(-c2cc(C=O)c(Cl)cc2F)c1=O`, the melting point lay in the range of 172 to 174 °C. The value for `CC(=O)NCc1ccc(Nc2nccc(-c3sc(-c4cccnc4)nc3C)n2)cc1` was 199 to 201 °C; that for `CC(C)C(c1cncnc1C=NO)N(C)C(=O)Cc1ccccc1` (stereo not given) was 171 to 172 °C.

With `CNC(=O)c1ccc(-c2ccc3nnn(Cc4ccc5ncccc5c4)c3n2)cc1F`, the melting point was 212 to 214 °C.

On to `OC1(c2cccc(Cl)c2)CCN(c2nc3ccc(C(F)(F)F)cc3[nH]2)CC1`, for which the melting point was found to be 247 °C. The value for `CCOC(=O)CNC(=O)CCl` was 60 to 62 °C; that for `Nc1nc(N)c2ncn(CC/C=C/P(=O)(O)O)c2n1` was more than 325 °C; that for `Cc1ccc(CCCC(=O)O)cc1C` was 50 to 51 °C. The same measure for `COCOc1cc(Cl)ccc1-c1cc(-c2cccc(C(=O)NCCCn3ccnc3)c2)c(C#N)c(NC(=O)c2ccco2)n1`: 121 to 122 °C; for `CCOCC(N=O)C(C)(C)Cl` (stereo not given): 84 to 85 °C.

On to `COc1cc([N+](=O)[O-])c2ncccc2c1Cl`, for which the melting point lay in the range of 204 to 206 °C.

Molecule `NC(=NO)c1cc2c(cn1)[nH]c1ccccc12` had a melting point of 159 to 163 °C. The same measure for `O=C1CCCc2ccc3ccccc3c21`: 64 to 66 °C. The value for `O=c1[nH]c2ccccc2c(=O)n1S(=O)(=O)c1ccc(Cl)cc1` was 214 to 215 °C; that for `NC(CC(=O)O)C(=O)N1C(=O)c2ccc(C(=O)O)cc2C1=O` (stereo not given) was 242 to 243 °C; that for `COc1cc(C(=O)O)ccc1Cc1cn(C)c2ccc(C(=O)NCCC(C)C)cc12` was 190 to 191 °C. The value for `Oc1cc2c(cc1O)OCC(c1ccc3c(c1)OCO3)C2` (stereo not given) was 163 to 164 °C. As to `Oc1ccc2c(c1)C=CC=CS2`, the melting point lay within 165 to 166 °C.

The molecule `Cc1cc(C)nc(NCSC(=S)N2CCOCC2)n1` displayed a melting point of 119 to 121 °C.
